Results published in patent publication US20220273659A1, “HETEROCYCLIC COMPOUNDS AS KINASE INHIBITORS” (NUVATION BIO INC., priority 2019, published 2022).
Like-named read-outs stand apart in the source and are kept apart here.

Experiments:
CDK2 (cyclin A) = biological target: T1, CDK2 (cyclin A) (Homo sapiens, UniProt P24941); assay: Z'-LYTE kinase assay; assay type: biochemical
T1 construct: purchased Invitrogen Life Technologies (assay service)
Protocol: IC50 values of compounds against CDK2 (cyclin A) were determined by Z′-LYTE™ These screening assays were performed at Invitrogen Life Technologies (Grand Island, N.Y.) on a low volume NBS, black 384-well plate (#4514, Corning). 0.1 μL of 100×test compound in 100% DMSO (at specific solutions) was mixed with 2.4 μL of Kinase Buffer (50 mM HEPES pH 7.5, 0.01% BRIJ-35, 10 mM MgCl2, 1 mM EGTA), 5 μL of 2× Kinase (1.22-10.3 ng CDK2/cyclin A)/Peptide (2 μM Ser/Thr 12), and 2.5 μL of 4×ATP solution (31 μM). The plates were shaken for 30 seconds, and incubated for 60 minutes at room temperature. Development Reagent Solution (5 μL of 1:1024 dilution) was added to the plates followed with another 30-second plate shake and the plates were further incubated at room temperature for one hour. The plates were read on fluorescence plate reader with Dual emission at 445 nm and 520 nm.
The following equations were used for Z′-LYTE™ Screening Assay Data Analysis. Percent inhibition (100-% activity) was fitted to the “four-parameter logistic model” in XLfit for determination of IC50 values.

CDK6 = biological target: T2, CDK6 (Homo sapiens, UniProt Q00534); assay: In vitro kinase inhibition IC50, luminescence (ADP Glo), retinoblastoma substrate; assay type: biochemical; settings: read-out: CDK6/D1 IC50
T2 construct: purchased Invitrogen PR8422B
T2 sequence (Q00534 whole entry): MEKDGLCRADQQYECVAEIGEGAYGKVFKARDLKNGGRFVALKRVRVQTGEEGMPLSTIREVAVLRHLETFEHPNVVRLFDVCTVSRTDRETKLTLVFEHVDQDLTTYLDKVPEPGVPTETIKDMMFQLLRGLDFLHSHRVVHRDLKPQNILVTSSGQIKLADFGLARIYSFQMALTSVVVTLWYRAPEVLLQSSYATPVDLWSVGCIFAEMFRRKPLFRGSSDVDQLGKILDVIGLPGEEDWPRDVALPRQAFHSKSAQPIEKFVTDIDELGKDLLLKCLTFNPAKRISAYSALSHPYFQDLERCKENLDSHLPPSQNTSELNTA
T2 sequence (P24385 whole entry partner): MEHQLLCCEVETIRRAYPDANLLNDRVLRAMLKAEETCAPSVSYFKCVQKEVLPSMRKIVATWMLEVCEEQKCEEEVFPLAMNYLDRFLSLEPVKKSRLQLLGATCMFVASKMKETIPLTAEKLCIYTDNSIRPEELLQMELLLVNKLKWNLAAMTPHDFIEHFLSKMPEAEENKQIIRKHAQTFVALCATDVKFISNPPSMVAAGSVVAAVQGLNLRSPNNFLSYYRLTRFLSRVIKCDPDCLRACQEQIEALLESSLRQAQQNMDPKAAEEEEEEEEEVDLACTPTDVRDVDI
Summary of the method: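 Recombinant CDK6 (5 nM) with retinoblastoma substrate (1 μM) and 25 μM ATP, compound at final 0.1–200 nM, incubated 2 h at room temperature. ADP formed detected by ADP-Glo luminescence. IC50 from four-parameter logistic fit of percent inhibition.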

CDK4 = biological target: T3, CDK4 (Homo sapiens, UniProt P11802); assay: as above; assay type: biochemical; settings: read-out: CDK4/D1 IC50
T3 construct: purchased Invitrogen PR8064A
T3 sequence (P11802 whole entry): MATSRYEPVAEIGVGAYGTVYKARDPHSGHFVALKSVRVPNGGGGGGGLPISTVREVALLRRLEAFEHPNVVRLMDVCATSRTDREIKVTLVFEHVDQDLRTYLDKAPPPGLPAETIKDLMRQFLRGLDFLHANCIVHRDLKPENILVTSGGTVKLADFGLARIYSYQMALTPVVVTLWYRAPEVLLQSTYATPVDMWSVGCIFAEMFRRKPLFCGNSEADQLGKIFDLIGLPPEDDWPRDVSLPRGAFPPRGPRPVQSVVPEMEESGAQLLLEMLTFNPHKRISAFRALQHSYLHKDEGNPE
T3 sequence (P24385 whole entry partner): as the sequence (P24385 whole entry partner) above
Summary of the method: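 CDK4 enzyme (5 nM, Invitrogen) was combined with test compound and a mix of retinoblastoma substrate (1 μM) plus ATP (25 μM) in kinase buffer, 30 μL/well in 96-well half area white plates. After 2H at room temperature, ADP Glo reagent stopped the reaction for 45 min, then detection reagent was added and luminescence was read.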

[1] = system: DU4475 breast carcinoma cells; assay: Cancer cell proliferation assay, single agent (cell viability); assay type: cell-based; settings: Homo sapiens, DU-4475; Table 4; Rb negative; treatment 144 Hr with medium change at 72 Hr; Cell Titer-Glo or resazurin
Summary of the method: (§1)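 Cells seeded day 1, then exposed on day 2 to 7–9 compound concentrations (e.g. 1.1 nM–10 μM); BT-549 for 24 h, MCF-7 and DU4475 for 144 h with medium change at 72 h. Viability by CellTiter-Glo or resazurin; IC50 from variable-slope sigmoidal fit.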

[2] = system: MCF-7 breast adenocarcinoma cells; assay: as above; assay type: cell-based; settings: Homo sapiens, MCF7, Table 4; Rb positive; treatment 144 Hr with medium change at 72 Hr; Cell Titer-Glo or resazurin
Summary of the method: as §1

CDK1 (cyclin B) = biological target: T4, CDK1 (cyclin B) (Homo sapiens, UniProt P06493); assay: Z'-LYTE kinase assay; assay type: biochemical
T4 construct: purchased Invitrogen Life Technologies (assay service)
T4 sequence (P06493 whole entry): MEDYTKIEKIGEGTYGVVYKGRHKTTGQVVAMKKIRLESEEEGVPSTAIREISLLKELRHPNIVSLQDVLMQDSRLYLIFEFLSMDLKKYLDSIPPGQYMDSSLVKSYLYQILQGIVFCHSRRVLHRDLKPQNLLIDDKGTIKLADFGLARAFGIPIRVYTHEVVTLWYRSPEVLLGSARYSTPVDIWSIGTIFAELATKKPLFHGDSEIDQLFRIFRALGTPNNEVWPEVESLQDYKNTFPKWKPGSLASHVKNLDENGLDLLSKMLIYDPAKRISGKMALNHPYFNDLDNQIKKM
T4 sequence (P14635 whole entry partner): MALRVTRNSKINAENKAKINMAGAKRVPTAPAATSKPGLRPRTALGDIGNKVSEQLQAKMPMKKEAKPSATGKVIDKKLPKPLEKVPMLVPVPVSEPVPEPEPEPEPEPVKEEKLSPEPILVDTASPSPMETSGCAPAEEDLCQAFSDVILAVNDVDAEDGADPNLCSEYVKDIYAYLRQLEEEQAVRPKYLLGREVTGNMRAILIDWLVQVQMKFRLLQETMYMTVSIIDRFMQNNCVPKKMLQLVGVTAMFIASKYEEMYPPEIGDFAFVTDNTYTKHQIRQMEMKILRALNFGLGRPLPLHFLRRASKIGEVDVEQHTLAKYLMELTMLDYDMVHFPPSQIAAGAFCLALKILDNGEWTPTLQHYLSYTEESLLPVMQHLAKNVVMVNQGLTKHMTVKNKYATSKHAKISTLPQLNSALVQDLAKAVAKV
Protocol: The plates were shaken for 30 seconds, and incubated for 60 minutes at room temperature. […] The plates were read on fluorescence plate reader with Dual emission at 445 nm and 520 nm.
The following equations were used for Z′-LYTE™ Screening Assay Data Analysis.

IC50 (CDK2 (cyclin A)) [nM] | IC50 (CDK6) [nM] | IC50 (CDK4) [nM] | IC50 [1] [nM] | IC50 [2] [nM] | IC50 (CDK1 (cyclin B); read-out: CDK1/B IC50) [nM] | IC50 (CDK1 (cyclin B)) [nM] | Compound
7 | 5.5 | 7 | 670 | 107 | 87 |  | CS(=O)(=O)N1CCC(Nc2ncc3cc(C#N)c(=O)n(C45CC(C4)C5)c3n2)CC1 [Compound No. 369, 8-(bicyclo[1.1.1]pentan-1-yl)-2-((1-(methylsulfonyl)piperidin-4-yl)amino)-7-oxo-7,8-dihydropyrido[2,3-d]pyrimidine-6-carbonitrile]
242 | 47 | 124 | 1220 | 445 | 2730 |  | N#Cc1cc2cnc(Nc3ccc4c(c3)CCNC4)nc2n(C23CC(C2)C3)c1=O [Compound No. 370, 8-(bicyclo[1.1.1]pentan-1-yl)-7-oxo-2-((1,2,3,4-tetrahydroisoquinolin-6-yl)amino)-7,8-dihydropyrido[2,3-d]pyrimidine-6-carbonitrile]
3410 | 25 | 14 | 2600 | 515 | > 5000 |  | N#Cc1cc2cnc(NC3CCN(S(=O)(=O)C(F)(F)F)CC3)nc2n(C2CCCC2)c1=O [Compound No. 371, 8-cyclopentyl-7-oxo-2-((1-((trifluoromethyl)sulfonyl)piperidin-4-yl)amino)-7,8-dihydropyrido[2,3-d]pyrimidine-6-carbonitrile]
434 | 67 | 16 | 4720 | 1220 | > 3620 |  | CS(=O)(=O)N1CCC(Nc2ncc3cc(C4CC4)c(=O)n(C4CCCC4)c3n2)CC1 [Compound No. 379, 8-cyclopentyl-6-cyclopropyl-2-((1-(methylsulfonyl)piperidin-4-yl)amino)pyrido[2,3-d]pyrimidin-7(8H)-one]
5.5 | 15 | 30 | 715 | 1220 | 55 |  | C[C@@]1(O)CCC[C@H]1n1c(=O)c(C#N)cc2cnc(NC3CCN(S(C)(=O)=O)CC3)nc21 [Compound No. 380, 8-((1R,2R)-2-hydroxy-2-methylcyclopentyl)-2-(1-(methylsulfonyl)piperidin-4-ylamino)-7-oxo-7,8-dihydropyrido[2,3-d]pyrimidine-6-carbonitrile]
57 | 120 | > 200 | > 10000 | 743 | > 3570 |  | CCCCCc1ccc(S(=O)(=O)N2CCC(Nc3ncc4cc(C#N)c(=O)n(C5CCCC5)c4n3)CC2)cc1 [Compound No. 381, 8-cyclopentyl-7-oxo-2-(1-(4-pentylphenylsulfonyl)piperidin-4-ylamino)-7,8-dihydropyrido[2,3-d]pyrimidine-6-carbonitrile]
209 | > 200 | > 200 | > 10000 | 1840 | > 4860 |  | CCCCCCc1ccc(S(=O)(=O)N2CCC(Nc3ncc4cc(C#N)c(=O)n(C5CCCC5)c4n3)CC2)cc1 [Compound No. 382, 8-cyclopentyl-2-(1-(4-hexylphenylsulfonyl)piperidin-4-ylamino)-7-oxo-7,8-dihydropyrido[2,3-d] pyrimidine-6-carbonitrile]
8 | 6 | 11 | 2440 | 145 |  | 233 | N#Cc1cc2cnc(NC3CCN(S(=O)(=O)N4CCOCC4)CC3)nc2n(C2CCCC2)c1=O [Compound No. 383, 8-cyclopentyl-2-(1-(morpholinosulfonyl)piperidin-4-ylamino)-7-oxo-7,8-dihydropyrido[2,3-d]pyrimidine-6-carbonitrile]
28 | 20 | 24 | 5680 | 1600 |  | 585 | CS(=O)(=O)N1CCC(Nc2ncc3cc(C#N)c(=O)n([C@H]4CCC(F)(F)C4)c3n2)CC1 [Compound No. 384, (S)-8-(3,3-difluorocyclopentyl)-2-(1-(methylsulfonyl)piperidin-4-ylamino)-7-oxo-7,8-dihydropyrido[2,3-d]pyrimidine-6-carbonitrile]
